Test results reported in patent US20100331363A1, “TREATMENT OF MITOCHONDRIAL DISORDERS USING A FARNESYL TRANSFERASE INHIBITOR” (Link Medicine Corporation, priority 2008, published 2010).
“Also recorded” adds a separate entry of the source. Like-named read-outs stand apart in the source and are kept apart here.

How the values were obtained:
GGTase = GGTase (Homo sapiens, UniProt P49354+P53609); assay: Table 5A in vitro GGTI (H-Ras, K-Ras CAAX mutant); assay type: biochemical
From the text: The selectivity of LNK-754 for FTase over GGTAse is shown below in Table 5A.

INS1 cells = assay: Palmitate-induced cell death of INS1 cells, propidium iodide flow cytometry; assay type: cell-based; settings: low dose; palmitate 18 hours, compound last 12 hours
Procedure: LNK-754 was tested using a cell death assay to determine whether it had any effect on palmitate-induced cell death. For Example, one example of such an assay is as follows: INS1 cells were incubated in control medium or in medium containing palmitate for 18 hours and either rapamycin or LNK-754 at 0.25 nM, 0.5 nM, 1 nM, 10 nM, and 100 nM were added for the last 12 hours. At the end of the incubation, the cells were washed with PBS and stained with 1 μg/ml propidium iodide (e.g., Molecular Probes, P3566). FACS data analysis was performed and cell debris was excluded. […] At low dose, LNK-754 behaves similar to rapamycin.

[1] = system: LC3-positive puncta (autophagosomes); assay: LC3 immunostaining (LC3-positive puncta) in SH-SY5Y cells; assay type: cell-based, human; settings: 100 nM, SH-SY5Y (FIG. 8b)
Procedure: Cell culture and immunocytochemistry: SH-SY5Y cells were grown in DMEM medium supplemented with 10% FBS and 1% pen/strep at 37° C. and 5% CO2. Cells were differentiated with 10 μM retinoic acid for 48 hr, then treated with the either rapamycin (100 nM or 1 μM) or with 100 nM of either LNK-754-TS or Tipifarnib for 48-72 hr. Cells were then fixed with 4% paraformaldehyde and stained for LC3 (Novus biological, NB100-2331, dilution 1:800) followed by secondary Alexa-564 anti-Rabbit (A-11011).
Autophagy was measured in a neuroblastoma cell culture system by three distinct approaches: quantitation of autophagy-related mRNA's, immunofluorescence microscopy of autophagosomes, and biochemical detection of the microtubule-associated protein 1 light chain 3 (LC3) a key protein that is required for autophagosome formation. Differentiated human neuroblastoma cells (SH-SY5Y) were treated for 72 hr with LNK-754-TS (0.01-100 nM), Zarnestra® (also referred to herein as tipifarnib) (100 nM) or rapamycin (1 μM).

[2] = system: p70 S6 kinase (S6K) phosphorylation, mTOR pathway; assay: p70 S6 kinase phosphorylation in SH-SY5Y cells; assay type: cell-based, human; settings: SH-SY5Y (FIG. 8f)
From the text: Rapamycin is a well-characterized autophagy stimulator that acts through inhibition of mTOR, a kinase involved in nutrient signaling and regulation of cell growth and survival.

APP/PS1 transgenic mice = assay: Morris water maze in APP/PS1 transgenic mice; assay type: in vivo, mouse; settings: 0.9 mg/kg once every 24 hours, vs vehicle
Procedure: Animals and treatments: Male and female human WT alpha-synuclein over-expressing transgenic mice^32 at 6 months of age were given vehicle (10% beta-cyclodextrin) or LNK-754-TS (0.09, 0.9 and 9 mg/kg) per oral gavage twice daily for 3 months or animals at 7 months of age were given vehicle (2.5% beta-cyclodextrin) or LNK-754-TS (2 mg/kg) once every three days for 3 months. Male and female TAU transgenic mice expressing TAU441 bearing the missense mutations V337M^50 and R406W under the control of the murine Thy-1 promoter with a CB6xC57BL/6 background were 5 months old at the time when the oral treatment for three months with LNK-754-TS (0.9 and 0.09 mg/kg) as well as vehicle (2.5% beta-cyclodextrin) was started. Female human APP/PS1 (APP (London V7171)/PS1(A246E)) over-expressing transgenic mice were treated with LNK-754-TS (0.9 mg/kg) or vehicle (2.5% beta-cyclodextrin) for 2 months or 12 days.
Morris water maze (MWM) analysis of cognitive performance: In APP/PS1 transgenic animals, swimming behavior in a Morris Water Maze was videotaped and analyzed (Ethovision, Noldus, Wageningen, Netherlands). For mice, a place navigation test was used to locate the hidden platform in five blocks of three trials over three consecutive days. […] The time each mouse needed for location of the platform was measured. […] The time and path length each rat needed to locate the platform was measured. […]

Ras = assay: Soluble/cytoplasmic Ras level in frontal cortex of alpha-synuclein transgenic mice; assay type: in vivo, mouse; settings: 0.09 mg/kg or 9 mg/kg b.i.d. 3 months vs vehicle
Procedure: The level of inhibition of Ras in brain by LNK-754-TS, dosed at an efficacious dose for efficacy in animal models of proteinopathy-dependent neurodegeneration, was investigated. Alpha-synuclein transgenic mice were treated for 3 months b.i.d. with vehicle or LNK-754-TS at 0.09 mg/kg or 9 mg/kg. Cortical tissue was extracted and homogenized, followed by isolation of soluble/cytosolic proteins in detergent-free buffer (50 mM Tris-HCl pH 7.4, 140 mM NaCl, 2 mM EDTA, Protease inhibitor cocktail) by centrifugation. 15 micrograms of protein lysate was analyzed per lane of SDS-PAGE gel, and immunoblotted for Ras and actin (FIG. 6). Densitometry was used to quantify the Ras/actin ratio for each sample, and results were plotted (FIG. 7). […] This contrasts with what is observed in xenograft cancer models, where inhibition of Ras farnesylation by high dose FTIs is directly correlated with efficacy (FIG. 3 and Example 3).

| Compound | IC50 (GGTase; read-out: H-Ras CAAX Mutant GGTI) [µM] | IC50 (GGTase; read-out: K-Ras CAAX Mutant GGTI) [µM] | palmitate-induced cell death (INS1 cells) | number of LC3-positive puncta [1] | phosphorylation of p70 S6 kinase (S6K) [2] | cognitive performance, Morris water maze (APP/PS1 transgenic mice; 12 days) | performance in the Morris water maze (APP/PS1 transgenic mice; two months) | soluble Ras/actin level in cortex (Ras) |
| --- | --- | --- | --- | --- | --- | --- | --- | --- |
| C#Cc1cccc(-c2cc(=O)n(C)c3ccc([C@](O)(c4ccc(Cl)cc4)c4cncn4C)cc23)c1 [LNK-754, (R)-6-[(4-chlorophenyl)-hydroxyl-(1-methyl-1-H-imidazol-5-yl)-methyl]-4-(3-ethynylphenyl)-1-methyl-2-(1H)-quinonlinone] | 0.552 | 2.89 | protects INS1 cells from palmitate toxicity |  |  |  |  |  |
| C#Cc1cccc(-c2cc(=O)n(C)c3ccc([C@](O)(c4ccc(Cl)cc4)c4cncn4C)cc23)c1 [LNK-754-TS, (R)-6-[(4-chlorophenyl)-hydroxyl-(1-methyl-1-H-imidazol-5-yl)-methyl]-4-(3-ethynylphenyl)-1-methyl-2-(1H)-quinonlinone (2S, 3S)-dihydroxybutanedioate] |  |  |  | distinct increase; also recorded: increased | did not inhibit phosphorylation | significant cognitive improvement | performed significantly better; also recorded: significant cognitive improvement | No significant differences |
